Test results published in patent US20040232089A1, “Biocidal compounds for treating water” (VANETTA S.p.A., priority 2003, published 2004).

Key:
[1] = test system: Pseudomonas elongata NCIMB 1141; assay: Microdilution broth MIC/MBC; format: cell-based; details: 24 h at 25° C., dark
Protocol: (§1) b) Serial dilution test: the antibiotic activity is determined quantitatively by using the known sensitivity of a test strain towards an antibiotic which is expressed numerically as the minimal inhibitory concentration (MIC) and the minimal bactericidal concentration (MBC).
(§2) Procedure: serial dilutions of the antibiotic to be tested are pipetted into the antibiotic broth, this is then inoculated with a defined quantity of the relevant test strain (FIG. 4).
(§3) The Minimum Inhibitory Concentration (MIC) was defined as the lowest concentration of antibiotic which prevented visual turbidity after incubation.
(§4) The Minimum Bactericidal Concentration (MBC) is defined as the lowest concentration of an antibiotic killing the majority of a bacterial inoculum (99.9%, equivalent to a thousand-fold reduction of the inoculum). Method: Following a broth dilution MIC test, from each tube in the dilution series a defined volume (20 μL) is spread onto plates without antibiotics. To minimize the carry-over effect of antibiotic from the test tubes, let the drop “dry” before the inoculum is spread over the surface (a section of the agar plate). The plates were incubate overnight (longer for slow growing bacteria) and then counted the number of colonies growing from each of the test tubes. The number of colonies corresponding to a thousand-fold reduction (MBC) can be calculated if the colony count of the start inoculum is known.
(§5) The microdilution broth method was used to evaluate the MIC and the MBC against 15 aerobic bacteria isolated from culture collection and seawater. Antimicrobial dilutions were performed using Mueller Hinton Broth supplemented with divalent cations. The tested product was dissolved in the medium to obtain a final range concentration between 0,12 to 64 mg/l.
(§6) Antimicrobial assays were performed in dark, and results were read after 24 h of incubation at 25° C. Each test towards the same indicator strain was performed in three replicates.
(§7) The assayed strains were environment isolates identified by an internal number or standard strains identified by the ATCC or NCIMB accession number.

[2] = test system: Vibrio sp. CH45; assay: Microdilution broth MIC/MBC; format: cell-based; details: 24 h at 25° C., dark
Protocol: as §1, §2, §3, §4, §5, §6, §7

[3] = test system: Vibrio sp. AD18; assay: Microdilution broth MIC/MBC; format: cell-based; details: 24 h at 25° C., dark
Protocol: as §1, §2, §3, §4, §5, §6, §7

[4] = test system: Bacillus subtilis ATCC 10774; assay: Microdilution broth MIC/MBC; format: cell-based; details: 24 h at 25° C., dark
Protocol: as §1, §2, §3, §4, §5, §6, §7

[5] = test system: Vibrio parahaemolyticus AD19; assay: Microdilution broth MIC/MBC; format: cell-based; details: 24 h at 25° C., dark
Protocol: as §1, §2, §3, §4, §5, §6, §7

[6] = test system: Escherichia coli ATCC 25922; assay: Microdilution broth MIC/MBC; format: cell-based; details: 24 h at 25° C., dark
Protocol: as §1, §2, §3, §4, §5, §6, §7

[7] = test system: Corynebacterium sp. CT15; assay: Microdilution broth MIC/MBC; format: cell-based; details: 24 h at 25° C., dark
Protocol: as §1, §2, §3, §4, §5, §6, §7

[8] = test system: Vibrio sp. AE7; assay: Microdilution broth MIC/MBC; format: cell-based; details: 24 h at 25° C., dark
Protocol: as §1, §2, §3, §4, §5, §6, §7

[9] = test system: Pseudomonas aeruginosa ATCC 10145; assay: Microdilution broth MIC/MBC; format: cell-based; details: 24 h at 25° C., dark
Protocol: as §1, §2, §3, §4, §5, §6, §7

[10] = test system: Bacillus licheniformis NCIMB 1525; assay: Microdilution broth MIC/MBC; format: cell-based; details: 24 h at 25° C., dark
Protocol: as §1, §2, §3, §4, §5, §6, §7

[11] = test system: Micrococcus sp. AE11; assay: Microdilution broth MIC/MBC; format: cell-based; details: 24 h at 25° C., dark
Protocol: as §1, §2, §3, §4, §5, §6, §7

[12] = test system: Pseudomonas putida NCIMB 1960; assay: Microdilution broth MIC/MBC; format: cell-based; details: 24 h at 25° C., dark
Protocol: as §1, §2, §3, §4, §5, §6, §7

[13] = test system: Micrococcus sp. AD10; assay: Microdilution broth MIC/MBC; format: cell-based; details: 24 h at 25° C., dark
Protocol: as §1, §2, §3, §4, §5, §6, §7

[14] = test system: Aeromonas sp. CH34; assay: Microdilution broth MIC/MBC; format: cell-based; details: 24 h at 25° C., dark
Protocol: as §1, §2, §3, §4, §5, §6, §7

[15] = Biodegradability OECD 301 A (92/69/EEC C4-A); details: 7 days after the beginning of the test
Protocol: In fact, based on data available with respect to the most similar compounds to the menadione derivatives disclosed herein, one would expect a degradability in the range of 0% (percentage calculated based on the initial mass expressed in mg/l) typical of menadione (2-methyl-1,4-naphthalenedione) and 17% (assessed after 28 days) typical of menadione sodium bisulphite (which calculation was performed in accordance with the guidelines OECD301 A attached to directive EEC 92/69/EEC C4-A).
Finally biodegradability was also evaluated according to standard 92/69/EEC C4-A. From the data, both MNB and MPB result to have a remarkably better biodegradability than 2-methyl-1,4-naphthalenedione and particularly than MSB.

[16] = test system: Mytilus galloprovincialis; assay: Mussels efficacy test (trocophora and veliger larvae); format: in vivo; details: after 24 hours
Protocol: Mussels are bivalve shellfish that grow quickly and profusely. They have two identical, convex shells. These shells are elongate, triangular and joined by a rubbery hinge ligament on the upper side. There are three main periods in the Mytilus galloprovincialis life cycle: the larval, juvenile, and adult stages. The larvae are planktonic (float in water column) during their initial three life stages: trochophore, veliger, and pediveliger.
Efficacy tests were carried out by using two larval stages of this organism: trocophora and veliger. Adult specimens of this organism were collected and transferred into our laboratories, where they were cleaned from debris, and put in single 200 ml beakers, with […] filtered natural sea-water. Through a thermal shock, sexual products (eggs and sperma) were obtained. Fertilized eggs (about 300.000) were filtered and put in 1000 ml beakers, with […] filtered natural sea-water. Cultures were maintained at 20° C., with a photoperiod of 16:8 light:dark. After the first 24 hours post-fertilization, trocophora stage is present. Larvae were reared and fed with a planktonic alga, Pavlova lutheri, every day they were filtered, and water was changed. Veliger stage is reached about 48-72 hours after fertilization.

[17] = test system: nauplii of Artemia salina; assay: Artemia efficacy test
Protocol: This efficacy test was carried out by using nauplii of Artemia salina (Crustacea: Anacostraca).
Cysts reactivation has been carried out 24 hours before the execution of tests. […] Beakers, hermetically closed and aerated with pre-filtered air (0,22 μm), were incubated for 24 hours at 25° C., without photoperiod. For the tests E3 developing stage nauplii were employed (24 hours after cysts reactivation). Nauplii were divided from not-opened cysts by exploiting their positive fototactism: a light beam is placed near the beaker, obtaining a considerable concentration of organisms, that can be taken by using a Pasteur pipette. The following MNB concentrations have been tested: 0-0.05-0.1-0.5-1-5-10 ppm (mg/L). These solutions have been prepared immediately before carrying out the tests using natural filtered (0.22 μm) sea water (NFSW). For tests, multiwell plates (25 wells) have been used, each well has a capacity of 4 ml. In the first column there was the control solution (water without product), and in the following the different concentrations in increasing order. In each well about 20-25 individuals were added, each concentration was repeated in four replicates. Multiwell plates, hermetically closed with parafilm and lid, were incubated at dark for 24-48 hours at 25° C. […] Larvae were considered dead when there was completely no movement for 10 seconds.
Mortality percentage was calculated as the mean of the four replicates for each concentration. Data were analysed by using the Probits method, in order to calculate the lethal concentration for the 50% of the population (LC50).

CC1(S(=O)(=O)O)CC(=O)c2ccccc2C1=O.NC(=O)c1cccnc1 (centres unmarked) [MNB, menadione nicotinamide bisulphite]
MBC [1]: 16 µg/mL | MIC [1]: 8 µg/mL | MBC [2]: 16 µg/mL | MIC [2]: 16 µg/mL | MBC [3]: 32 µg/mL | MIC [3]: 16 µg/mL | MBC [4]: 32 µg/mL | MIC [4]: 12 µg/mL | MBC [5]: 4 µg/mL | MIC [5]: 1 µg/mL | MBC [6]: >64 µg/mL | MIC [6]: >64 µg/mL | MBC [7]: 16 µg/mL | MIC [7]: 8 µg/mL | MBC [8]: 64 µg/mL | MIC [8]: 32 µg/mL | MBC [9]: >64 µg/mL | MIC [9]: >64 µg/mL | MBC [10]: 32 µg/mL | MIC [10]: 16 µg/mL | MBC [11]: 16 µg/mL | MIC [11]: 8 µg/mL | MBC [12]: >64 µg/mL | MIC [12]: >64 µg/mL | MBC [13]: 32 µg/mL | MIC [13]: 16 µg/mL | MBC [14]: 64 µg/mL | MIC [14]: 32 µg/mL | degradability relative to that of MSB [15]: eight | LC50 ([16]; trocophorae): 0.108 µg/mL | LC50 ([16]; veliger): 0.167 µg/mL | LC1 ([17]; 24 hours): 3.170 mg/L | LC50 ([17]; 24 hours): 7.625 µg/mL | LC1 ([17]; 48 hours): 0.548 mg/L | LC50 ([17]; 48 hours): 1.840 µg/mL
